Values joined by “and” are separate entries in the source; they are usually repeats but may differ in a detail not shown here. Equal entries are not always repeated.
Tested on: LG0703-F948-PDC complex spheroid viability
Assay: Anticancer human tumor LG0703-F948-PDC patient-derived lung adenocarcinoma cell line growth inhibition [RAS]
Settings: for viability, T/C: stronger effect = lower value
Method in brief: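 Tumour cells grown as complex spheroids with HUVEC endothelial cells and mesenchymal stem cells, treated with RAS pathway inhibitor combinations. Each agent spans half-log steps from near clinical Cmax, or 10 microM where Cmax is unknown.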
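Note: spheroids exposed to agents for 7 days.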
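Throughout, for viability, T/C: 100% = DMSO vehicle wells.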

For `C=CC(=O)Nc1cc(Nc2nccc(-c3cn(C)c4ccccc34)n2)c(OC)cc1N(C)CCN(C)C` + C#Cc1c(F)ccc2cc(O)cc(-c3ncc4c(N5CC6CCC(C5)N6)nc(OCC56CCCN5CC(F)C6)nc4c3F)c12, the IC50 (curve of first compound, second compound 0.0316 µM) was 0.011 µM, the IC50 (curve of first compound, second compound 0.1 µM) was 0.00922 µM and the IC50 (curve of first compound, second compound 0.316 µM) was 0.00602 µM. It also gave an IC50 (curve of first compound, second compound 1 µM) of 0.00422 µM, an IC50 (curve of first compound, second compound 3.16 µM) of less than 0.00316 µM and an IC50 (curve of first compound, second compound 10 µM) of less than 0.00316 µM. The viability, T/C (second compound 0.0316 µM, first compound 0.00316 µM) was 96.5%, the viability, T/C (second compound 0.0316 µM, first compound 0.01 µM) was 53% and the viability, T/C (second compound 0.0316 µM, first compound 0.0316 µM) was 17.6%. The viability, T/C (second compound 0.0316 µM, first compound 0.1 µM) was 12.5%, the viability, T/C (second compound 0.0316 µM, first compound 0.316 µM) was 11.1% and the viability, T/C (second compound 0.0316 µM, first compound 1 µM) was 8.76%. It also gave a viability, T/C (second compound 0.1 µM, first compound 0.00316 µM) of 84.3%, a viability, T/C (second compound 0.1 µM, first compound 0.01 µM) of 47.4% and a viability, T/C (second compound 0.1 µM, first compound 0.0316 µM) of 15.8%. The viability, T/C (second compound 0.1 µM, first compound 0.1 µM) was 14%, the viability, T/C (second compound 0.1 µM, first compound 0.316 µM) was 13.8% and the viability, T/C (second compound 0.1 µM, first compound 1 µM) was 8.56%. It also gave a viability, T/C (second compound 0.316 µM, first compound 0.00316 µM) of 69.2%, a viability, T/C (second compound 0.316 µM, first compound 0.01 µM) of 34.9% and a viability, T/C (second compound 0.316 µM, first compound 0.0316 µM) of 15.6%. For the same molecule, the viability, T/C (second compound 0.316 µM, first compound 0.1 µM) was 11.2%, the viability, T/C (second compound 0.316 µM, first compound 0.316 µM) was 10.1% and the viability, T/C (second compound 0.316 µM, first compound 1 µM) was 8.31%. It also gave a viability, T/C (second compound 1 µM, first compound 0.00316 µM) of 56.2%, a viability, T/C (second compound 1 µM, first compound 0.01 µM) of 31.5% and a viability, T/C (second compound 1 µM, first compound 0.0316 µM) of 14.2%. For the same molecule, the viability, T/C (second compound 1 µM, first compound 0.1 µM) was 10.2%, the viability, T/C (second compound 1 µM, first compound 0.316 µM) was 9.15% and the viability, T/C (second compound 1 µM, first compound 1 µM) was 7.05%. The viability, T/C (second compound 3.16 µM, first compound 0.00316 µM) was 48.8%, the viability, T/C (second compound 3.16 µM, first compound 0.01 µM) was 25% and the viability, T/C (second compound 3.16 µM, first compound 0.0316 µM) was 10.1%. The viability, T/C (second compound 3.16 µM, first compound 0.1 µM) was 11.4%, the viability, T/C (second compound 3.16 µM, first compound 0.316 µM) was 8.78% and the viability, T/C (second compound 3.16 µM, first compound 1 µM) was 6.8%. For the same molecule, the viability, T/C (second compound 10 µM, first compound 0.00316 µM) was 33.5%, the viability, T/C (second compound 10 µM, first compound 0.01 µM) was 10.2% and the viability, T/C (second compound 10 µM, first compound 0.0316 µM) was 10.5%. For the same molecule, the viability, T/C (second compound 10 µM, first compound 0.1 µM) was 7.37%, the viability, T/C (second compound 10 µM, first compound 0.316 µM) was 6.33% and the viability, T/C (second compound 10 µM, first compound 1 µM) was 4.43%.
With `C[C@@H](NC(=O)c1ncnc(N)c1Cl)c1ncc(C(=O)Nc2cc(C(F)(F)F)c(Cl)cn2)s1` the viability, T/C (compound 0.0316 µM) was 102% and 115% and 92.8%, the viability, T/C (compound 0.1 µM) was 120% [middle of 4 runs] and the viability, T/C (compound 0.316 µM) was 103% [middle of 4 runs]. For the same molecule, the viability, T/C (compound 1 µM) was 114% [middle of 4 runs], the viability, T/C (compound 3.16 µM) was 102% [middle of 4 runs] and the IC50 (curve of compound) was greater than 10 µM.
`CC1(O)CCCC1n1c(=O)c(C(F)F)cc2cnc(NC3CCN(S(C)(=O)=O)CC3)nc21` (stereo not given) + CCn1c(-c2cccnc2C(C)OC)c2c3cc(ccc31)N1CCOC(CC(NC(=O)C(C(C)C)N(C)C(=O)C3(F)CCN(C(=O)C#CC(C)(C)N(C)C)CC3)C(=O)N3CCCC(N3)C(=O)OCC(C)(C)C2)C1 showed an IC50 (curve of first compound, second compound 0.000949 µM) greater than 10 µM, an IC50 (curve of first compound, second compound 0.003 µM) of 9.07 µM and an IC50 (curve of first compound, second compound 0.00949 µM) of 9.59 µM. The IC50 (curve of first compound, second compound 0.03 µM) was greater than 10 µM, the IC50 (curve of first compound, second compound 0.0949 µM) was 6.58 µM and the IC50 (curve of first compound, second compound 0.3 µM) was 4.12 µM. The viability, T/C (second compound 0.000949 µM, first compound 0.0316 µM) was 112%, the viability, T/C (second compound 0.000949 µM, first compound 0.1 µM) was 89.6% and the viability, T/C (second compound 0.000949 µM, first compound 0.316 µM) was 97.3%. It also gave a viability, T/C (second compound 0.000949 µM, first compound 1 µM) of 84.6%, a viability, T/C (second compound 0.000949 µM, first compound 3.16 µM) of 85.4% and a viability, T/C (second compound 0.000949 µM, first compound 10 µM) of 50%. For the same molecule, the viability, T/C (second compound 0.003 µM, first compound 0.0316 µM) was 114%, the viability, T/C (second compound 0.003 µM, first compound 0.1 µM) was 90.7% and the viability, T/C (second compound 0.003 µM, first compound 0.316 µM) was 108%. The viability, T/C (second compound 0.003 µM, first compound 1 µM) was 93.5%, the viability, T/C (second compound 0.003 µM, first compound 3.16 µM) was 82.2% and the viability, T/C (second compound 0.003 µM, first compound 10 µM) was 46.5%. The viability, T/C (second compound 0.00949 µM, first compound 0.0316 µM) was 88.9%, the viability, T/C (second compound 0.00949 µM, first compound 0.1 µM) was 114% and the viability, T/C (second compound 0.00949 µM, first compound 0.316 µM) was 94.1%. The viability, T/C (second compound 0.00949 µM, first compound 1 µM) was 86.4%, the viability, T/C (second compound 0.00949 µM, first compound 3.16 µM) was 87.5% and the viability, T/C (second compound 0.00949 µM, first compound 10 µM) was 47.9%. It also gave a viability, T/C (second compound 0.03 µM, first compound 0.0316 µM) of 112%, a viability, T/C (second compound 0.03 µM, first compound 0.1 µM) of 90.4% and a viability, T/C (second compound 0.03 µM, first compound 0.316 µM) of 90%. For the same molecule, the viability, T/C (second compound 0.03 µM, first compound 1 µM) was 84.4%, the viability, T/C (second compound 0.03 µM, first compound 3.16 µM) was 87.8% and the viability, T/C (second compound 0.03 µM, first compound 10 µM) was 51.4%. For the same molecule, the viability, T/C (second compound 0.0949 µM, first compound 0.0316 µM) was 90.5%, the viability, T/C (second compound 0.0949 µM, first compound 0.1 µM) was 99.6% and the viability, T/C (second compound 0.0949 µM, first compound 0.316 µM) was 85.8%. It also gave a viability, T/C (second compound 0.0949 µM, first compound 1 µM) of 75.5%, a viability, T/C (second compound 0.0949 µM, first compound 3.16 µM) of 78.6% and a viability, T/C (second compound 0.0949 µM, first compound 10 µM) of 36%. For the same molecule, the viability, T/C (second compound 0.3 µM, first compound 0.0316 µM) was 54.8%, the viability, T/C (second compound 0.3 µM, first compound 0.1 µM) was 56.4% and the viability, T/C (second compound 0.3 µM, first compound 0.316 µM) was 58.2%. It also gave a viability, T/C (second compound 0.3 µM, first compound 1 µM) of 57.4%, a viability, T/C (second compound 0.3 µM, first compound 3.16 µM) of 62.3% and a viability, T/C (second compound 0.3 µM, first compound 10 µM) of 23.9%.

From PubChem BioAssay AID2060890 (Molecular Pharmacology Branch, DTP, NCI, 2025)
